Source: patent publication US9310660B2, “Organic compound and electrochromic element including the same” (CANON KABUSHIKI KAISHA, priority 2013, dated 2016)

Legend:
[1] = Ultraviolet and visible absorption spectrum in chloroform; format: physicochemical; conditions: dissolved in chloroform, neutralized state
Protocol: The resulting exemplified compound A-1 was dissolved in chloroform. The absorption spectrum of the solution was measured with an ultraviolet and visible spectrometer (V-560, manufactured by JASCO Corp.) and is shown in FIG. 2.
The resulting exemplified compound B-1 was dissolved in chloroform. The absorption spectrum of the solution was measured as in Example 1.

[2] = Solubility in propylene carbonate; format: physicochemical; conditions: organic solvent or mixture
Protocol: The solubilities of three compounds: Compound A-1 prepared in Example 1, Compound B-1 prepared in Example 2, and pyridinium salt precursor Ref-1 of Compound A-1 as a comparative example, in propylene carbonate, a solvent for an EC element, were measured.
Compound Ref-1 as a comparative example has a structure in which the pyridinium salt moiety of Compound A-1 is replaced by a non-ionized structure, a pyridyl group. The molecular structure is shown below.

maximum absorption peak λmax [1] | solubility [2] | SMILES
355.5 nm | ≥ 300 mM | Cc1cc(C)c(-c2cc3sc4cc(-c5cccc(-c6cc[n+](Cc7ccccc7)cc6)c5)sc4c3s2)c(C)c1 [Compound A-1]
311.5 nm | ≥ 75 mM | Cc1c(-c2cccc(-c3cc[n+](Cc4ccccc4)cc3)c2)sc(-c2cccc(-c3cc[n+](Cc4ccccc4)cc3)c2)c1C [Compound B-1]

SMILES | maximum absorption peak λmax [1] | solubility [2]
Cc1cc(C)c(-c2cc3sc4cc(-c5cccc(-c6ccncc6)c5)sc4c3s2)c(C)c1 [Ref-1, reference compound] |  | ≤ 8 mM
